US5378813A, “Meso-2,5-dimercapto-N,N,N'N'-tetramethyladipamide” (President and Fellows of Harvard College, priority 1992, dated 1995)
Values after ≈ are worked out from the molar mass of the structure shown. Like-named read-outs stand apart in the source and are kept apart here. One block for each compound: values may come before it.

Key:
[1] = Determination of pKa (absorbance at 238 nm against pH); type: physicochemical; conditions: for fraction existing as the thiolate: pH 7.0; for pKa: aqueous buffers
Experimental: The absorbance at 238 nm of meso-DTA (100 μL of an 8 mM ethanolic solution of meso-DTA) in various aqueous buffers (3 mL, 50 mM: 2,2-dimethylsuccinate, pH 6.0, 6.4, 6.8; Tris, pH 7.0, 7.3, 7.7, 8.0, 8.3, 8.7; glycine, pH 9.0, 9.5, 10.0) was plotted against pH. This curve was then compared with plots derived from theory.

[2] = Reduction potential and equilibrium constant for reduction of ME^ox by the dithiol; type: physicochemical; conditions: for K, equilibrium constant: reduction of ME^ox with the dithiol in water, pH 7.0, 100 mM phosphate buffer; for ε° (reduction potential): relative to mercaptoethanol (-0.209 V)
Experimental: We used the equilibrium constant between meso-DTA and DTT to determine the values of ε° and K(ME) of meso-DTA.
(§1) After 4 h, a ^1 H NMR spectrum was obtained.

DNase = biological target: T1, DNase (Bos taurus, UniProt P00639); assay: Rate of reduction (deactivation) of DNase; type: biochemical; parameters: kapp^DTA: unit not given here
T1 construct: purchased Sigma
From the text: (§2) In papain and creatine kinase, the disulfide being reduced is derived from an essential active site cysteine, (Smith et al., Biochemistry 1975, 14, 766-771) and the rate measured is the rate of reactivation of the modified protein. (Shaked et al., Biochemistry 1980, 19, 4156-4166.) DNase is deactivated by the reduction of an internal disulfide. (Shaked et al., Biochemistry 1980, 19, 4156-4166; and Price et al., J. Biol. Chem. 1969, 244, 929-932.)

[3] = Solubility in phosphate buffer; type: physicochemical; conditions: reduced (dithiol) form, phosphate buffer pH 7.0, 100 mM phosphate, 25° C
Experimental: ^e The solubilities were determined in phosphate buffer (pH 7.0, 100

[4] = Equilibration of dl-DTA and meso-DTA (1H NMR); type: physicochemical; conditions: 100 mM phosphate buffer, pD 7.0
Experimental: dl-DTA^OX (2 mg in 0.5 mL of buffered D2 O (100 mM NaPO4, pD 7.0)) and meso-DTA (6 mg in 1.5 mL of buffered D2 O (100 mM NaPO4, pD 7.0)) were mixed in an NMR tube, and ^1 H NMR spectra were taken at various times. The value of Keq was calculated from the ^1 H NMR integrals.

[5] = Kinetics of reduction of mercaptoethanol disulfide by 1H NMR spectroscopy; type: physicochemical; parameters: kapp^DTA / kapp, apparent rate constant: unit not given here; conditions: for kapp, apparent rate constant: reduction of mercaptoethanol disulfide (ME^ox), pH 7.0, aqueous phosphate buffer (50 mM)
Experimental: (§3) The thiol-disulfide interchange reaction was quenched by addition of 25 μL of a DCl solution (12 wt % in D2 O) in one tube after 2 min, in another tube after 4 min, and in another tube after 6 min. The same series of experiments was carried out with the meso-DTA solution instead of the DTT solution. The second-order rate constant was calculated from the integrals of the ^1 H NMR spectra.

[6] = reference value to which all ε° are relative; cited from earlier work
[7] = Equilibrium experiment, meso-DTA with DTT^OX (1H NMR); type: physicochemical; conditions: 50 mM phosphate buffer, pD 7.0
Experimental: as §1

papain-S-S-Me = biological target: T2, papain-S-S-Me (Carica papaya, UniProt P00784); assay: Kinetics of reactivation of papain-S-S-Me; type: biochemical; parameters: kapp^DTA: unit not given here
T2 construct: purchased Boehringer Mannheim
T2 sequence (P00784 134-345): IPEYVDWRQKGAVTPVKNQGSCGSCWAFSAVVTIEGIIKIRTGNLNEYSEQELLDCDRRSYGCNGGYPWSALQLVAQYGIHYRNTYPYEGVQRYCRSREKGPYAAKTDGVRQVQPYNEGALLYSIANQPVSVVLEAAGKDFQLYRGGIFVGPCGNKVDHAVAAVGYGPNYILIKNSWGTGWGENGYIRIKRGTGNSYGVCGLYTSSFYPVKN
Experimental: as §2
The papain-S-S-Me was prepared as described by Shaked et al., Biochemistry 1980, 19, 4156-4166. […] Chem. 1991, 56, 2332-2337.

[8] = biological target: T3, creatine kinase-S-S-glutathione (Oryctolagus cuniculus, UniProt P00563); assay: Kinetics of reactivation of creatine kinase-S-S-glutathione; type: biochemical; parameters: kapp^DTA: unit not given here
T3 construct: purchased Sigma
From the text: as §2
The solution of creatine kinase S-S-glutathione (the procedure was analogous to that of Walters and Gilbert, J. Biol. Chem. 1986, 261, 15372-15377) (10 μL) was diluted with deoxygenated aqueous buffer (pH 7.0, 0.1M imidazole, 2 mM EDTA, 2.5 mL). The diluted solution was added to two flasks (1.0 mL each). […] At various times, a 50-μL aliquot was withdrawn and added to an assay solution (950 μL, pH 6.0, 0.1M imidazole, 2 mM EDTA, 10 mM MgCl2, 2 mM ADP, 20 mM d-glucose, 2 mM NADP, 30 mM phosphocreatine, hexokinase (50 units/mL), glucose-6-phosphate dehydrogenase (35 units/mL)). The rate of increase in absorbance at 340 nm was recorded. (Gerhardt, Methods of Enzymatic Analysis, 3rd ed.; Bergmeyer, Ed.; Verlag Chemie: Weinheim, 1983; Vol. III, pp. 508-524.)

[9] = Relative rate of reduction of disulfides, meso-DTA compared with DTT (summary and calculation); type: physicochemical; conditions: pH 7.0
From the text: as §2
The difference between the calculated and the actual value for proteins could be due to steric interactions, because meso-DTA is a secondary thiol and DTT is a primary thiol. The difference in rates could also be due to the relative difference in hydrophobicities of the two compounds.

[10] = Kinetics of reduction of glutathione disulfide by 1H NMR spectroscopy; type: physicochemical; parameters: kapp^DTA: unit not given here; conditions: pH 7.0, 298 K
Experimental: as §3

[11] = reduction of an internal disulfide, aqueous solution, pH 7.0, 298 K
[12] = aqueous buffer, read-out: solubility
[13] = DMH data from Singh and Whitesides 1991
[14] = rate of reactivation, aqueous solution, pH 7.0, 298 K

T3 sequence (P00563 2-381 limits assumed): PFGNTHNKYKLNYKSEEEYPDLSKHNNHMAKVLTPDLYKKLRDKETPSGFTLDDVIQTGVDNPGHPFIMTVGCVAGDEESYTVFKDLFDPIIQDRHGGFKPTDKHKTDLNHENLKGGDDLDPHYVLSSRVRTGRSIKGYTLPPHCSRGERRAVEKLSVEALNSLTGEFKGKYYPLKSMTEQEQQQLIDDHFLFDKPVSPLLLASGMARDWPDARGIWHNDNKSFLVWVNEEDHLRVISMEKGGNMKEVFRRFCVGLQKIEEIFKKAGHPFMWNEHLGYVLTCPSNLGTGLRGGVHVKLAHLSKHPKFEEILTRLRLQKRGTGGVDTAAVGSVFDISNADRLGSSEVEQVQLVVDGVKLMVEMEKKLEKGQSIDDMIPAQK
T1 sequence (P00639 23-282): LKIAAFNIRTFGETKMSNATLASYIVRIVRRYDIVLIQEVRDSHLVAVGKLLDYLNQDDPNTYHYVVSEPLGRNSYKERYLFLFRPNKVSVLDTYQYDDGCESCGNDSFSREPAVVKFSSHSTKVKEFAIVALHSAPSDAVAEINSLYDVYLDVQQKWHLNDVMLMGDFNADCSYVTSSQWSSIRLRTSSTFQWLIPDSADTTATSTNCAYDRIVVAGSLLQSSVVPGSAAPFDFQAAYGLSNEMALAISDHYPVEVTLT

SMILES: O[C@H](CS)[C@H](O)CS (racemic) [DTT, dithiothreitol, reference compound]
fraction existing as the thiolate [1]: about 1%
K, equilibrium constant [2]: 10^5 M
ε° (reduction potential) [2]: -0.356 V
kapp^DTT (DNase; [11]): 0.19 M^1 g^-1
solubility [3]: high

K, equilibrium constant [2]: 10^4 M
ε° (reduction potential) [2]: -0.328 V
factor by which more reducing than meso-DTA [4]: 10
SMILES: CN(C)C(=O)[C@H](S)CC[C@@H](S)C(=O)N(C)C (relative stereo) [dl-DTA]

pKa ([1]; read-out: pKa (first thiol)): 7.6
pKa ([1]; read-out: pKa (second thiol)): 8.9
K, equilibrium constant [2]: 10^3 M
ε° (reduction potential) [2]: -0.300 V
solubility [3, 12]: 250 mM (≈ 52.1 mg/mL)
SMILES: CN(C(=O)CS)N(C)C(=O)CS [DMH, N,N'-dimethyl-N,N'-bis(mercaptoacetyl) hydrazine, reference compound]
kapp, apparent rate constant [5]: 0.52

SMILES: OCCS [ME, Mercaptoethanol]
ε° of the reference mercaptoethanol [6]: -0.209 V

SMILES: CN(C)C(=O)[C@H](S)CC[C@H](S)C(=O)N(C)C [meso-DTA, meso-2,5-Dimercapto-N,N,N',N'-tetramethyladipamide]
Keq = [meso-DTA^OX][DTT]/[meso-DTA][DTT^OX] [7]: 0.010
kapp^DTA / kapp^DTT ([5]; mercaptoethanol disulfide, pH 7.0, 298 K): 7.7
kapp^DTA / kapp^DMH ([5]; mercaptoethanol disulfide, DMH data from Singh and Whitesides 1991): 1.1
kapp, apparent rate constant [5]: 0.50
kapp^DTA ([5]; reduction of mercaptoethanol disulfide, aqueous solution, pH 7.0, 298 K): 0.50
kapp^DTA / kapp^DMH (papain-S-S-Me; [13]): 0.15
kapp^DTA / kapp^DTT (papain-S-S-Me; pH 7.0, 298 K): 4.5
kapp^DTA (papain-S-S-Me; [14]): 260
pKa ([1]; read-out: pKa (first thiol)): 7.8 ± 0.2
pKa ([1]; read-out: pKa (second thiol)): 8.9 ± 0.2
fraction existing as the thiolate [1]: approximately 15%
factor by which the equilibrium constant for reduction of ME^OX is less than that of DTT [2]: 10^2
less reducing than DTT by [2]: approximately 56 mV
K, equilibrium constant [2]: 10^3 M
ε° (reduction potential) [2]: -0.300 V
kapp^DTA / kapp^DMH (DNase; [13]): 0.4
kapp^DTA / kapp^DTT (DNase; pH 7.0, 298 K): 1.8
kapp^DTA (DNase; [11]): 0.34
kapp^DTA / kapp^DMH [8, 13]: 0.5
kapp^DTA / kapp^DTT ([8]; pH 7.0, 298 K): 3.4
kapp^DTA [8, 14]: 78
times faster reduction of disulfide bonds than DTT ([9]; aqueous solution): up to 8 times
relative rate of reduction compared with DTT, disulfide bond in proteins ([9]; water): 2-5 times
Keq = [meso-DTA^OX][dl-DTA]/[meso-DTA][dl-DTA^OX] [4]: 0.10
kapp^DTA / kapp^DTT ([10]; glutathione disulfide): 5.5
kapp^DTA ([10]; reduction of glutathione disulfide, aqueous solution): 0.31
solubility [3, 12]: 80 mM (≈ 21.2 mg/mL)
